Data reported in patent publication US5650428A, “Arylsulfonamide derivative and pharmaceutical compositions and use thereof” (NKK Corporation, priority 1993, dated 1997).
Counter-ions that a name gives are not always drawn.

Assays:
[1] = target: T1, thromboxane A2 (TxA2) receptor (Cavia porcellus, UniProt A0A286Y4I8); test: TxA2 antagonist action by binding assay; settings: washed guinea pig platelets, 1 nM [3H]-SQ29,548, 45 minutes at 25° C.
T1 construct: to obtain washed platelets; from tissue; host or cells: washed platelets of male Hartley guinea pigs
T1 sequence (A0A286Y4I8 1-347): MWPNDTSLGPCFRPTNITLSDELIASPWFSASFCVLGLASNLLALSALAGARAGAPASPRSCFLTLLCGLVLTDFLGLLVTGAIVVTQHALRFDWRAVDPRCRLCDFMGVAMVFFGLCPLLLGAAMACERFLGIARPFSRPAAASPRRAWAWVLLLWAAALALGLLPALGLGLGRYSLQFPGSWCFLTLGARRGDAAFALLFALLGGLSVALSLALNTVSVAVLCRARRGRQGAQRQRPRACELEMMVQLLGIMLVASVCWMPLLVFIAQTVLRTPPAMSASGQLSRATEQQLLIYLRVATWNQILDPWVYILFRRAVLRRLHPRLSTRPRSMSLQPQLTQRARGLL
Procedure: (1) TxA2 antagonist action by binding assay Guinea pigs (Hartley; male; body weight=approximately 500 g) were anesthetized with ether, and the blood was collected into sodium citrate (final concentration=0.38%). The preparation of platelets was carried out at room temperature. The platelet rich plasma was obtained by centrifugation at 980 rpm for 10 minutes. One tenth (1/10) amount of 77 mM-EDTA-Na (pH 7.4) was added to the platelet rich plasma, and the mixture was centrifuged for 10 minutes at 3000 rpm. The suspension was again centrifuged at 3000 rpm for 10 minutes. The precipitate was further resuspended in a suspension buffer (2) shown in Table 2 to obtain washed platelets. The number of platelets was counted by an automatic blood cell counter (Sysmex Microcellcounter F-800) and the sample was diluted with the suspension buffer to 4×10^8 cells/ml. The platelets, sample solution and labeled compounds were placed into plastic tubes in amounts (volumes) shown in the following Table 3, incubated for 45 minutes at 25° C., and then the mixture was filtered using a cell harvester (Brandel cell harvester M-24R) by a glass fiber filter (Whatman GF/B). After the filter was sufficiently dried, the scintillation was counted by a scintillation counter (Beckman LS5000TD). IC50 was calculated from (binding)/(control binding) ratio in the presence of an antagonist. [table 3: the next 10 blocks are its lines as printed, fixed-width]

[2] = tested on: rat platelet; test: Inhibitory activity of aggregation in rat platelet; format: cell-based; settings: rat platelet rich plasma, arachidonic acid (final concentration 0.5 mM) as inducer; read-out: C: Inhibitory activity of aggregation in rat platelet (IC50; μM)
Procedure: (3) Inhibitory Activity of Aggregation in Rat Platelet The abdomen of etherized rat was open, and blood was taken from the abdominal arteries, using a sodium citrate solution (final concentration was 0.38%). The blood was centrifuged at 1100 rpm for 10 minutes, and the supernatent was separated as the platelet rich plasma. The plasma was further centrifuged at 2000 rpm for 15 minutes to obtain the supernatent as a platelet poor plasma. The platelet rich plasma (280 μl) was placed in a measuring cuvette and preincubated for 1 minute at 37° C. Then, a sample solution (10 μl) was added. After 2 minutes, an arachidonic acid solution (final concentration=0.5 mM) (10 μl) was added as an inducer. The change in light transmission was recorded for 5 minutes.

| IC50 [1] [µM] | IC50 [2] [µM] | SMILES |
| --- | --- | --- |
| 0.074 | 1.7 | O=C(O)Cc1ccc(NC(=O)C(COc2ccccc2Cl)NS(=O)(=O)c2ccc(I)cc2)cc1 (racemic) [Example 152, (RS)-N-(4-(carboxymethyl)phenyl)-3-(2-chlorophenoxy)-2-(4-iodobenzenesulfonylamino)propanamide] |
| 2.2 | 1.7 | O=C(O)Cc1ccc(NC(=O)C(COC2CCCCO2)NS(=O)(=O)c2ccccc2)cc1 (racemic) [Example 52, (RS)-2-(benzenesulfonylamino)-N-(4-(carboxymethyl)phenyl)-3-(tetrahydropyran-2-yloxy) propanamide] |
| 0.029 | 0.17 | O=C(O)CCc1ccc(NC(=O)[C@H](Cc2ccccc2)NS(=O)(=O)c2ccc(Cl)cc2)cc1 [Example 250, (S)-N-(4-(2-carboxyethyl)phenyl)-2-(4-chlorobenzenesulfonylamino)-3-phenylpropanamide] |
| 0.42 | 3.6 | O=C(O)Cc1cccc(NC(=O)C(COC2CCCCO2)NS(=O)(=O)c2ccc(Cl)cc2)c1 (racemic) [Example 45, (RS)-N-(3-(carboxymethyl)phenyl)-2-(4-chlorobenzenesulfonylamino)-3-(tetrahydropyran-2-yloxy)propanamide] |
| 0.16 | 1.7 | O=C(O)Cc1ccc(NC(=O)C(COc2ccc(Cl)cc2)NS(=O)(=O)c2ccc(Cl)cc2)cc1 (racemic) [Example 130, (RS)-N-(4-(carboxymethyl)phenyl)-2-(4-chlorobenzenesulfonylamino)-3-(4-chlorophenoxy)propanamide] |
| 0.0087 | 0.17 | O=C(O)c1cccc(NC(=O)[C@H](Cc2ccccc2)NS(=O)(=O)c2ccc(Br)cc2)c1 [Example 257, (S)-2-(4-bromobenzenesulfonylamino)-N-(3-carboxyphenyl)-3-phenylpropanamide] |
| 0.005 | 0.051 | O=C(O)CCc1ccc(NC(=O)[C@H](Cc2ccccc2)NS(=O)(=O)c2ccc(Br)cc2)cc1 [Example 254, (S)-2-(4-bromobenzenesulfonylamino)-N-(4-(2-carboxyethyl)phenyl)-3-phenylpropanamide] |
| 0.014 | 0.053 | CSCC[C@H](NS(=O)(=O)c1ccc(Br)cc1)C(=O)Nc1cccc(C(=O)O)c1 [Example 241, (S)-2-(4-bromobenzenesulfonylamino)-N-(3-carboxyphenyl)-4-methylthiobutanamide] |
| 0.11 | 1.7 | O=C(O)CCc1cccc(NC(=O)C(COC2CCCCO2)NS(=O)(=O)c2ccc(Cl)cc2)c1 (racemic) [Example 46, (RS)-N-(3-(carboxyethyl)phenyl)-2-(4-chlorobenzenesulfonylamino)-3-(tetrahydropyran-2-yloxy)propanamide] |
| 1 | 1.75 | O=C(O)CCCCCCNC(=O)C(COC1CCCCO1)NS(=O)(=O)c1ccc(Cl)cc1 (racemic) [Example 50, (RS)-N-(6-carboxyhexyl)-2-(4-chlorobenzenesulfonylamino)-3-(tetrahydropyran-2-yloxy)propanamide] |
| 1.5 | 1.79 | O=C(O)CCc1ccc(NC(=O)C(Cn2ccnc2)NS(=O)(=O)c2ccc(Cl)cc2)cc1 (racemic) [Example 95, (RS)-N-(4-(2-carboxyethyl)phenyl)-2-(4-chlorobenzenesulfonylamino)-3-(1H-imidazol-1-yl)propanamide hydrochloride] |
| 0.16 | 1.7 | CC(C)CC(NS(=O)(=O)c1ccc(Cl)cc1)C(=O)Nc1ccc(CC(=O)O)cc1 (racemic) [Example 232, (RS)-N-(4-(carboxymethyl)phenyl)-2-(4-chlorobenzenesulfonylamino)-4-methylpentanamide] |
| 1.9 | 1.7 | O=C(O)Cc1ccc(NC(=O)C(Cn2ccnc2)NS(=O)(=O)c2ccc(F)cc2)cc1 (racemic) [Example 103, (RS)-N-(4-(carboxymethyl)phenyl)-2-(4-fluorobenzenesulfonylamino)-3-(1H-imidazol-1-yl)propanamide] |
| 0.012 | 0.053 | O=C(O)Cc1ccc(NC(=O)[C@H](Cc2ccccc2)NS(=O)(=O)c2ccc(Cl)cc2)cc1 [Example 248, (S)-N-(4-(carboxymethyl)phenyl)-2-(4-chlorobenzenesulfonylamino)-3-phenylpropanamide] |
| 0.17 | 5.3 | O=C(O)CCc1ccc(NC(=O)C(CCc2ccccc2)NS(=O)(=O)c2ccc(Cl)cc2)cc1 (racemic) [Example 174, (RS)-N-(4-(2-carboxyethyl)phenyl)-2-(4-chlorobenzenesulfonylamino)-4-phenylbutanamide] |
| 48.2 | 3.4 | CCCC[C@@H](NS(=O)(=O)c1ccc(Cl)cc1)C(=O)Nc1ccc(CC(=O)O)cc1 [Example 224, (R)-N-(4-(carboxymethyl)phenyl)-2-(4-chlorobenzenesulfonylamino)hexanamide] |
| 0.2 | 0.53 | O=C(O)Cc1ccc(NC(=O)C(COC2CCCCO2)NS(=O)(=O)c2ccc(F)cc2)cc1 (racemic) [Example 53, (RS)-N-(4-(carboxymethyl)phenyl)-2-(4-fluorobenzenesulfonylamino)-3-(tetrahydropyran-2-yloxy)propanamide] |
| 2 | 0.31 | O=C(O)Cc1ccc(NC(=O)C(COc2cccnc2)NS(=O)(=O)c2ccc(F)cc2)cc1 (racemic) [Example 123, (RS)-N-(4-(carboxymethyl)phenyl)-2-(4-fluorobenzenesulfonylamino)-3-(pyridin-3-yloxy)propanamide] |
| 0.06 | 0.89 | O=C(O)Cc1ccc(NC(=O)C(CC2CCCCC2)NS(=O)(=O)c2ccc(Cl)cc2)cc1 (racemic) [Example 260, (RS)-N-(4-(carboxymethyl)phenyl)-2-(4-chlorobenzenesulfonylamino)-3-cyclohexylpropanamide] |
| 0.41 | 1.7 | O=C(O)CCCCCCNC(=O)C(Cn1ccnc1)NS(=O)(=O)c1ccc(Cl)cc1 (racemic) [Example 101, (RS)-N-(6-carboxyhexyl)-2-(4-chlorobenzenesulfonylamino)-3-(1H-imidazol-1-yl)propanamide hydrochloride] |
| 0.13 | 0.31 | O=C(O)Cc1ccc(NC(=O)C(COc2cccnc2)NS(=O)(=O)c2ccc(Br)cc2)cc1 (racemic) [Example 124, (RS)-2-(4-bromobenzenesulfonylamino)-N-(4-(carboxymethyl)phenyl)-3-(pyridin-3-yloxy)propanamide] |
| 0.23 | 5.3 | O=C(O)Cc1ccc(NC(=O)C(COC2CCCCO2)NS(=O)(=O)c2ccc3ccccc3c2)cc1 (racemic) [Example 60, (RS)-N-(4-(carboxymethyl)phenyl)-N-(4-(carboxymethyl)phenyl)-2-(2-naphthalenesulfonylamino)-3-(tetrahydropyran-2-yloxy)propanamide] |
| 1.4 | 5.3 | O=C(O)Cc1ccc(NC(=O)C(COC2CCCCO2)NS(=O)(=O)c2ccc(Cl)c([N+](=O)[O-])c2)cc1 (racemic) [Example 58, (RS)-N-(4-(carboxymethyl)phenyl)-2-(4-chloro-3-nitrobenzenesulfonylamino)-3-(tetrahydropyran-2-yloxy)propanamide] |
| 0.024 | 0.18 | O=C(O)CCc1ccc(NC(=O)C(Cc2ccccc2)NS(=O)(=O)c2ccc(Cl)cc2)cc1 (racemic) [Example 249, (RS)-N-(4-(2-carboxyethyl)phenyl)-2-(4-chlorobenzenesulfonylamino)-3-phenylpropanamide] |
| 0.052 | 0.17 | CSCC[C@H](NS(=O)(=O)c1ccc(Cl)cc1)C(=O)Nc1ccc(CC(=O)O)cc1 [Example 234, (S)-N-(4-(carboxymethyl)phenyl)-2-(4-chlorobenzenesulfonylamino)-4-methylthiobutanamide] |
| 0.012 | 0.17 | O=C(O)Cc1ccc(NC(=O)C(Cc2ccccc2)NS(=O)(=O)c2ccc(Br)cc2)cc1 (racemic) [Example 251, (RS)-2-(4-bromobenzenesulfonylamino)-N-(4-(carboxymethyl)phenyl)-3-phenylpropanamide] |
